Test results reported in ChEMBL document CHEMBL4177616, “Potent anti-melanogenic activity and favorable toxicity profile of selected 4-phenyl hydroxycoumarins in the zebrafish model and the computational molecular modeling studies” (Bioorg Med Chem, 2017).

Legend:
[1] = organism: Danio rerio; experiment: Toxicity in wild type zebrafish embryos assessed as notochord at 10 ug/ml treated for 96 hrs post fertilization starting from 6 hrs post fertilization by inverted microscopic analysis relative to control; assay type: organism-based; conditions: in vivo
[2] = organism: Danio rerio; experiment: Toxicity in wild type zebrafish embryos assessed as heart beat at 25 ug/ml treated for 96 hrs post fertilization starting from 6 hrs post fertilization by inverted microscopic analysis relative to control; assay type: organism-based; conditions: in vivo
[3] = Toxicity in wild type zebrafish embryos assessed as dead embryo at 50 ug/ml treated for 96 hrs post fertilization starting from 6 hrs post fertilization by inverted microscopic analysis relative to control; assay type: organism-based, Danio rerio; conditions: in vivo, read-out: Activity
[4] = organism: Danio rerio; experiment: Toxicity in wild type zebrafish embryos assessed as skeletal deformities at 5 ug/ml treated for 96 hrs post fertilization starting from 6 hrs post fertilization by inverted microscopic analysis relative to control; assay type: organism-based; conditions: in vivo
[5] = system: Danio rerio; experiment: Toxicity in wild type zebrafish embryos assessed as pericardial edema at 20 ug/ml treated for 96 hrs post fertilization starting from 6 hrs post fertilization by inverted microscopic analysis relative to control; assay type: organism-based; conditions: in vivo
[6] = organism: Danio rerio; experiment: Toxicity in wild type zebrafish embryos assessed as notochord at 25 ug/ml treated for 96 hrs post fertilization starting from 6 hrs post fertilization by inverted microscopic analysis relative to control; assay type: organism-based; conditions: in vivo
[7] = system: Danio rerio; experiment: Toxicity in wild type zebrafish embryos assessed as pericardial edema at 10 ug/ml treated for 96 hrs post fertilization starting from 6 hrs post fertilization by inverted microscopic analysis relative to control; assay type: organism-based; conditions: in vivo
[8] = organism: Danio rerio; experiment: Toxicity in wild type zebrafish embryos assessed as normal embryo at 20 ug/ml treated for 96 hrs post fertilization starting from 6 hrs post fertilization by inverted microscopic analysis relative to control; assay type: organism-based; conditions: in vivo
[9] = organism: Danio rerio; experiment: Toxicity in wild type zebrafish embryos assessed as eyes at 25 ug/ml treated for 96 hrs post fertilization starting from 6 hrs post fertilization by inverted microscopic analysis relative to control; assay type: organism-based; conditions: in vivo
[10] = organism: Danio rerio; experiment: Toxicity in wild type zebrafish embryos assessed as normal embryo at 5 ug/ml treated for 96 hrs post fertilization starting from 6 hrs post fertilization by inverted microscopic analysis relative to control; assay type: organism-based; conditions: in vivo
[11] = system: Melanocyte; experiment: Cytotoxicity against wild type zebrafish embryo melanocytes assessed as punctate cells at 12.5 ug/ml treated for 72 hrs post fertilization starting from 6 to 24 hrs post fertilization; assay type: cell-based, Danio rerio
[12] = organism: Danio rerio; experiment: Toxicity in wild type zebrafish embryos assessed as head malformation at 25 ug/ml treated for 96 hrs post fertilization starting from 6 hrs post fertilization by inverted microscopic analysis relative to control; assay type: organism-based; conditions: in vivo
[13] = system: Danio rerio; experiment: Toxicity in wild type zebrafish embryos assessed as pericardial edema at 25 ug/ml treated for 96 hrs post fertilization starting from 6 hrs post fertilization by inverted microscopic analysis relative to control; assay type: organism-based; conditions: in vivo
[14] = organism: Danio rerio; experiment: Toxicity in wild type zebrafish embryos assessed as head malformation at 10 ug/ml treated for 96 hrs post fertilization starting from 6 hrs post fertilization by inverted microscopic analysis relative to control; assay type: organism-based; conditions: in vivo
[15] = system: Melanocyte; experiment: Cytotoxicity against wild type zebrafish embryo melanocytes assessed as change in morphology at 2.5 mg/ml treated for 72 hrs post fertilization starting from 6 to 24 hrs post fertilization; assay type: cell-based, Danio rerio
[16] = organism: Danio rerio; experiment: Toxicity in wild type zebrafish embryos assessed as teratogenic embryo at 50 ug/ml treated for 96 hrs post fertilization starting from 6 hrs post fertilization by inverted microscopic analysis relative to control; assay type: organism-based; conditions: in vivo
[17] = system: Danio rerio; experiment: Toxicity in wild type zebrafish embryos assessed as yolk edema at 25 ug/ml treated for 96 hrs post fertilization starting from 6 hrs post fertilization by inverted microscopic analysis relative to control; assay type: organism-based; conditions: in vivo
[18] = organism: Danio rerio; experiment: Toxicity in wild type zebrafish embryos assessed as otoliths at 25 ug/ml treated for 96 hrs post fertilization starting from 6 hrs post fertilization by inverted microscopic analysis relative to control; assay type: organism-based; conditions: in vivo
[19] = organism: Danio rerio; experiment: Toxicity in wild type zebrafish embryos assessed as teratogenic embryo at 25 ug/ml treated for 96 hrs post fertilization starting from 6 hrs post fertilization by inverted microscopic analysis relative to control; assay type: organism-based; conditions: in vivo
[20] = organism: Danio rerio; experiment: Toxicity in wild type zebrafish embryos assessed as otoliths at 20 ug/ml treated for 96 hrs post fertilization starting from 6 hrs post fertilization by inverted microscopic analysis relative to control; assay type: organism-based; conditions: in vivo
[21] = organism: Danio rerio; experiment: Toxicity in wild type zebrafish embryos assessed as normal embryo at 10 ug/ml treated for 96 hrs post fertilization starting from 6 hrs post fertilization by inverted microscopic analysis relative to control; assay type: organism-based; conditions: in vivo
[22] = system: Neutrophil; experiment: Cytotoxicity against mpx:GFP transgenic zebrafish 24 hrs post fertilization embryo neutrophils assessed as loss in neutrophil at 25 ug/ml relative to control; assay type: cell-based, Danio rerio
[23] = organism: Danio rerio; experiment: Toxicity in wild type zebrafish embryos assessed as unhatched embryo at 10 ug/ml treated for 96 hrs post fertilization starting from 6 hrs post fertilization by inverted microscopic analysis relative to control; assay type: organism-based; conditions: in vivo
[24] = organism: Danio rerio; experiment: Toxicity in wild type zebrafish embryos assessed as eyes at 10 ug/ml treated for 96 hrs post fertilization starting from 6 hrs post fertilization by inverted microscopic analysis relative to control; assay type: organism-based; conditions: in vivo
[25] = organism: Danio rerio; experiment: Toxicity in wild type zebrafish embryos assessed as eyes at 5 ug/ml treated for 96 hrs post fertilization starting from 6 hrs post fertilization by inverted microscopic analysis relative to control; assay type: organism-based; conditions: in vivo
[26] = Toxicity in wild type zebrafish embryos assessed as dead embryo at 25 ug/ml treated for 96 hrs post fertilization starting from 6 hrs post fertilization by inverted microscopic analysis relative to control; assay type: organism-based, Danio rerio; conditions: in vivo, read-out: Activity
[27] = Toxicity in wild type zebrafish embryos assessed as dead embryo at 20 ug/ml treated for 96 hrs post fertilization starting from 6 hrs post fertilization by inverted microscopic analysis relative to control; assay type: organism-based, Danio rerio; conditions: in vivo, read-out: Activity
[28] = system: Danio rerio; experiment: Toxicity in wild type zebrafish embryos assessed as yolk edema at 5 ug/ml treated for 96 hrs post fertilization starting from 6 hrs post fertilization by inverted microscopic analysis relative to control; assay type: organism-based; conditions: in vivo
[29] = organism: Danio rerio; experiment: Toxicity in wild type zebrafish embryos assessed as heart beat at 10 ug/ml treated for 96 hrs post fertilization starting from 6 hrs post fertilization by inverted microscopic analysis relative to control; assay type: organism-based; conditions: in vivo
[30] = organism: Danio rerio; experiment: Toxicity in wild type zebrafish embryos assessed as teratogenic embryo at 10 ug/ml treated for 96 hrs post fertilization starting from 6 hrs post fertilization by inverted microscopic analysis relative to control; assay type: organism-based; conditions: in vivo
[31] = system: Danio rerio; experiment: Toxicity in wild type zebrafish embryos assessed as yolk edema at 20 ug/ml treated for 96 hrs post fertilization starting from 6 hrs post fertilization by inverted microscopic analysis relative to control; assay type: organism-based; conditions: in vivo
[32] = organism: Danio rerio; experiment: Toxicity in wild type zebrafish embryos assessed as growth retardation at 5 ug/ml treated for 96 hrs post fertilization starting from 6 hrs post fertilization by inverted microscopic analysis relative to control; assay type: organism-based; conditions: in vivo
[33] = organism: Danio rerio; experiment: Toxicity in wild type zebrafish embryos assessed as heart beat at 20 ug/ml treated for 96 hrs post fertilization starting from 6 hrs post fertilization by inverted microscopic analysis relative to control; assay type: organism-based; conditions: in vivo
[34] = Toxicity in wild type zebrafish embryos assessed as dead embryo at 5 ug/ml treated for 96 hrs post fertilization starting from 6 hrs post fertilization by inverted microscopic analysis relative to control; assay type: organism-based, Danio rerio; conditions: in vivo, read-out: Activity
[35] = organism: Danio rerio; experiment: Toxicity in wild type zebrafish embryos assessed as eyes at 20 ug/ml treated for 96 hrs post fertilization starting from 6 hrs post fertilization by inverted microscopic analysis relative to control; assay type: organism-based; conditions: in vivo
[36] = organism: Danio rerio; experiment: Toxicity in wild type zebrafish embryos assessed as head malformation at 5 ug/ml treated for 96 hrs post fertilization starting from 6 hrs post fertilization by inverted microscopic analysis relative to control; assay type: organism-based; conditions: in vivo
[37] = system: Danio rerio; experiment: Toxicity in wild type zebrafish embryos assessed as pericardial edema at 5 ug/ml treated for 96 hrs post fertilization starting from 6 hrs post fertilization by inverted microscopic analysis relative to control; assay type: organism-based; conditions: in vivo

Row | Structure (SMILES) | Activity [1] | Activity [2] | mortality at 50 ug/ml [3] | Activity [4] | Activity [5] | Activity [6] | Activity [7] | Activity [8] | Activity [9] | Activity [10] | Activity [11] | Activity [12] | Activity [13] | Activity [14] | Activity [15] | Activity [17] | Activity [18] | Activity [19] | Activity [22] | mortality at 25 ug/ml [26] | other results
1 | O=c1cc(-c2ccccc2)c2ccc(O)cc2o1 | 0% | 0% | 0% | 0% | 0% | 0% | 0% | 100% | 0% | 100% | Non-Toxic | 0% | 0% | 0% | Non-Toxic | 0% | 0% | 0% | Non-Toxic | 0% | Activity [16]: 0%; Activity [20]: 0%; Activity [21]: 100%; Activity [23]: 0%; Activity [24]: 0%; Activity [25]: 0%; mortality at 20 ug/ml [27]: 0%; Activity [28]: 0%; Activity [29]: 0%; Activity [30]: 0%; Activity [31]: 0%; Activity [32]: 0%; Activity [33]: 0%; mortality at 5 ug/ml [34]: 0%; Activity [35]: 0%; Activity [36]: 0%; Activity [37]: 0%
2 | O=c1cc(CO)occ1O [KOJIC ACID] | – | 0% | – | – | – | 0% | – | – | 0% | – | Non-Toxic | 0% | 0% | – | Non-Toxic | 0% | 0% | 0% | Non-Toxic | 0% | –
3 | Oc1ccc(O)cc1 [HYDROQUINONE] | 0% | 100% | 100% | 0% | 100% | 0% | 100% | 0% | 100% | 0% | Non-Toxic | – | 100% | 100% | – | 100% | 100% | 6.7% | 30% | 93.3% | Activity [16]: 0%; Activity [20]: 100%; Activity [21]: 0%; Activity [23]: 0%; Activity [24]: 80%; Activity [25]: 0%; mortality at 20 ug/ml [27]: 70%; Activity [28]: 0%; Activity [29]: 90%; Activity [30]: 36.7%; Activity [31]: 100%; Activity [32]: 0%; Activity [33]: 100%; mortality at 5 ug/ml [34]: 0%; Activity [35]: 100%; Activity [36]: 0%; Activity [37]: 71.7%
4 | O=c1cc(-c2ccccc2)c2c(O)cc(O)cc2o1 | 0% | 0% | 0% | 0% | 0% | 0% | 0% | 100% | 0% | 100% | Non-Toxic | 0% | 0% | 0% | Non-Toxic | 0% | 0% | 0% | Non-Toxic | 0% | Activity [16]: 25%; Activity [20]: 0%; Activity [21]: 100%; Activity [23]: 0%; Activity [24]: 0%; Activity [25]: 0%; mortality at 20 ug/ml [27]: 0%; Activity [28]: 0%; Activity [29]: 0%; Activity [30]: 0%; Activity [31]: 0%; Activity [32]: 0%; Activity [33]: 0%; mortality at 5 ug/ml [34]: 0%; Activity [35]: 0%; Activity [36]: 0%; Activity [37]: 0%
